Here are results for four compounds from US6686391B2, “N-chlorophenylcarbamate and N-chlorophenylthiocarbamate compositions” (University of Arizona Foundation, priority 1995, dated 2004).

Structures are written as SMILES. In brackets after ≈: the same amount, converted by molar mass. Where two headings read alike, the source gives them in different places. Some results are limits rather than exact numbers.

In test [1] the test system is herpes. Kind of test: In vivo herpes screening test. Further details: species or system mice. Here is the method: In an in vivo herpes screening test, at a dose of 150 mg/kg dose, 60% of the mice survived with a 10.2 mean death date. The positive control was acyclovir at 75 mg/kg dose; 60% of the mice survived with a mean death date of 17.2 days.
Test [2] deals with murine melanoma (B16). Kind of test: In vivo mouse model for murine melanoma.
In test [3] the test system is breast cells (MX1). Kind of test: MTT cell viability test, breast cells. The format is cell-based. The note with it: Homo sapiens, 120 h. On the procedure: (§1) The following cell culture tests were performed to test the toxicity of N-chlorophenylcarbamates and N-chlorophenylthiocarbamates compounds on colon, breast and lung human tumor cells. The viability of the cells were tested by looking at MTT (3-[4,5-dimethylthiazol-2-yl]-2,5-diphenyltetrazolium bromide) reduction. MTT assay is a well known measure of cell viability.
(§2) The colon tumor cells (HT29 from American Type Culture Collection (ATCC)) and the breast cells (MX1 from cell lines from ATCC) were cultured in Eagle's Minimal Essential Medium with 10% fetal bovine serum. The lung tumor cells (A549 from ATCC cell lines) were cultured in Ham's F12 medium with 10% fetal bovine serum.
(§3) The tumor cells were passaged and seeded into culture flasks at the desired cell densities. The culture medium was decanted and the cell sheets were washed twice with phosphate buffered saline (PBS). The cells were trypsinized and triturated prior to seeding the flasks. Unless otherwise indicated the cultures were incubated at 37±1° C. in a humidified atmosphere of 5±1% carbon dioxide in air. The cultures were incubated until they were 50-80% confluent.
(§4) The cells were subcultured when the flasks were subconfluent. The medium was aspired from the flasks and the cell sheets rinsed twice with PBS. Next, the Trypsin Solution was added to each flask to cover the cell sheet. The Trypsin Solution was removed after 30-60 seconds and the flasks were incubated at room temperature for two to six minutes. When 90% of the cells became dislodged, growth medium was added. The cells were removed by trituration and transferred to a sterile centrifuge tube. The concentration of cells in the suspension was determined, and an appropriate dilution was made to obtain a density of 5000 cells/ml. The cells were subcultured into the designated wells of the 96-well bioassay plates (200 microliter cell suspension per well). PBS was added to all the remaining wells to maintain humidity. The plates were then incubated overnight before test article treatment.
(§5) Each dose of test article was tested by treating quadruplicate wells of cultures with 100 microliter of each dilution. Those wells designated as solvent controls received an additional 100 microliters of methanol control; negative controls wells received an additional 100 microliters of treatment medium. PBS was added to the remaining wells not treated with test article or medium. The plates were then incubated for approximately 5 days. […]
(§6) The absorbance at 550 nm (OD550) of each well was measured with a Molecular Devices (Menlo Park, Calif.) VMax plate reader.
(§7) The mean OD550 of the solvent control wells and that of each test article dilution, and that of each of the blank wells and the positive control were calculated. […]
For orientation: Tetrazolium assays rely on reduction of a dye to a coloured formazan, in cell work by metabolically active cells.

The subject of test [4] is HIV. Kind of test: Acute HIV study, in vitro acute model. The format is cell-based. The note with it: in vitro acute model for HIV. Here is the method:
In an in vitro acute model for HIV chloropropham inhibited viral replication by 47% at 10 μg/ml and AZT inhibited viral replication by 98% at 1 μg/ml. The therapeutic index for chloropropham is 2.5 compared to 12,500 for AZT. The therapeutic index is ratio of toxic dose of the drug to the efficacious dose of the drug.

Test [5] has as its system lung tumor cells (A549). Kind of test: MTT cell viability test, lung tumor cells. The format is cell-based. The conditions noted are these: Homo sapiens, A549, 120 h. Here is the method:
as §1, §2, §3, §4, §5, §6, §7

Test [6] has as its system leukemia (P388). The experiment in a line: In vivo mouse model for leukemia.
The subject of test [7] is Broncheal Cells. The experiment in a line: EC-50 in normal healthy cells, bronchial cells. It is filed as cell-based.
Test [8] relates to breast, colon, non-small cell lung and ovarian tumors. The experiment in a line: In vitro human tumor colony forming units test, continuous exposure. It is filed as cell-based. Here is the method: Solid tumors removed from patients are minced into 2 to 5 mm fragments and immediately placed in McCoy's Medium 5A plus 10% heat inactivated newborn calf serum plus 1% penicillin/streptomycin. Within 4 hours, these solids tumors are mechanically disassociated with scissors, forced through No. 100 stainless steel mesh, through 25 gauge needles, and then washed with McCoy's medium as described above. Ascitic, pleural, pericardial fluids and bone marrow are obtained by standard techniques. The fluid or marrow is placed in sterile containers containing 10 units of preservative free heparin per ml. of malignant fluid or marrow. After centrifugation at 150×g for 10 minutes, the cells are harvested and washed with McCoy's medium plus 10% heat inactivated calf serum. The viability of cell suspensions is determined on a hemocytometer with trypan blue.
Cells to be cloned are suspended in 0.3% agar in enriched CMRL1066 supplemented with 15% heat inactivated horse serum, penicillin (100 units/ml), streptomycin (2 mg/ml), glutamine (2 mM), insulin (3 units/ml), asparagine (0.6 mg/ml), and HEPES buffer (2 mM). For the continuous exposure test each compound is added to the above mixture. […] If there is <30% colonies in the positive control when compared to the untreated control, the test is evaluated.

In test [9] the test system is colon tumor cells (HT29). Kind of test: MTT cell viability test, colon tumor cells. The format is cell-based. The note with it: Homo sapiens, HT-29, 120 h. On the procedure: as §1, §2, §3, §4, §5, §6, §7
For test [10] the following is noted: doses from 50-400 mg/kg; 1958, 1959, 1972; cited from earlier work.
For test [11], the system named is influenza. Kind of test: In vivo model for influenza.
Test [12] concerns HIV replication in T-cells (chronic HIV-1 infected T-cells, ACH-2). Kind of test: HIV chronic study, chronically HIV-1 infected ACH-2 T-cells. The note with it: chronic HIV model, ACH-2 cells. The format is cell-based. Here is the method:
(§8) Chronic HIV-1 infected promonocytic cells U1 were derived from an acute HIV-1 infection of the promonocytic cell line, U937. The chronic HIV-1 infected T-cells, ACH-2, were derived from an acute HIV-1 infection of the T cell line, A3.01.
(§9) These cells were cultured in medium and the phorbol ester, PMA. PMA causes the cells (both U1 and ACH-2) to be activated and not divide but it also causes the U-1 cells to differentiate. […] Cell viability was measured when these cell lines were treated with the test compounds.
(§10) Both cell lines constituitively produce a small amount of HIV-1. ACH-2 cell lines tend to produce more HIV-1 than U1 cells as shown by p-24 ELISA. When either cell line is cultured in the presence of PMA there is an increase in the quantity of HIV-1 produced as measured by the p-24 antigen ELISA.
(§11) In addition, the number of […] positive HIV mRNA expressing cells per microscopic field is measured. Comparisons can be made from these numbers since the same number of cells were adhered to the glass slides for each drug concentration (10×10^6 cells/ml).

Test [13] concerns Fibroblasts. Kind of test: EC-50 in normal healthy cells, fibroblasts. It is filed as cell-based. The note with it: Fibroblast.
In test [14] the test system is HIV replication in monocytes (chronic HIV-1 infected promonocytic cells U1). The experiment in a line: HIV chronic study, chronically HIV-1 infected promonocytic U1 cells. It is filed as cell-based. Here is the method: as §8, §9, §10, §11
Test [15] deals with Kerotinoyle Cells. Kind of test: EC-50 in normal healthy cells, keratinocytes. The format is cell-based. The conditions noted are these: Keratinocyte.
The subject of test [16] is Rhinovirus. The experiment in a line: In vivo Rhinovirus screening test.
Test [17] deals with herpes. Kind of test: In vitro herpes screening model. The format is cell-based.
Test [18] concerns influenza. Kind of test: In vitro model for influenza. The format is cell-based.
Test [19] has as its system breast cancer (MXI). Kind of test: In vivo mouse model for breast cancer.
Setting [20] is: 75 mg/kg dose, positive control.

For `Nc1nc2c(ncn2COCCO)c(=O)[nH]1` [acyclovir, reference compound], in test [1] (setting [20]), the mean death date turned out to be 17.2 days and the mice survived amounted to 60%.
With `CC(C)OC(=O)Nc1cccc(Cl)c1` [Chloropropham, (3-chlorophenyl)carbamic acid 1-methylethyl ester], the “activity in in vivo mouse model for murine melanoma (B16)” value in test [2] was “no activity”. The EC50 in test [3] (read-out: EC-50 Result MX1, MTT, 5 day incubation, first MX1 column) is 91.8 µg/mL (≈ 430 µM); in test [3] (read-out: EC-50 Result MX1, MTT, 5 day incubation, second MX1 column), 108 µg/mL (≈ 505 µM); in test [5] (read-out: EC-50 Result A549, MTT, 5 day incubation, first A549 column), 12.6 µg/mL (≈ 59 µM); in test [5] (read-out: EC-50 Result A549, MTT, 5 day incubation, second A549 column), 92.5 µg/mL (≈ 433 µM); in test [7] (read-out: EC-50 Broncheal Cells, normal healthy cells, second value), above 15.2 µg/mL; in [9] (read-out: EC-50 Result HT29, MTT, 5 day incubation, first HT29 column), 13.3 µg/mL (≈ 62.2 µM). Further, the EC50 in test [9] (read-out: EC-50 Result HT29, MTT, 5 day incubation, second HT29 column) is 11.4 µg/mL (≈ 53.4 µM); in [13] (read-out: EC-50 Fibroblasts, normal healthy cells, first value), above 152 µg/mL; in test [13] (read-out: EC-50 Fibroblasts, normal healthy cells, second value), 64.2 µg/mL (≈ 300 µM); in test [15] (read-out: EC-50 Kerotinoyle Cells, normal healthy cells, first value) it was 3.9 µg/mL (≈ 18.3 µM); in [15] (read-out: EC-50 Kerotinoyle Cells, normal healthy cells, second value) it was 13 µg/mL (≈ 60.8 µM). In test [4] (Human immunodeficiency virus 1, 10 μg/ml, read-out: inhibition of viral replication), the inhibition at 10 µg/mL came to 47%. In addition, in test [6], the “activity in in vivo mouse model for leukemia (P388)” value is listed as “no activity”. The “effective against tumors (fraction)” value in test [8] (100 μg/ml, continuous exposure, breast, colon, non-small cell lung and ovarian tumors) is 6/7. The effectiveness against tumors result in test [8] (1 and 10.0 μg/ml) was “not effective”. Also, in test [10], the “activity in National Cancer Institute tests” value is recorded as “no activity”. Moreover, in test [11], the “activity in in vivo model for influenza” value is on record as “did not show activity”. The “increase in HIV replication in T-cells” value in [12] was found to be 101%. Also, the mean death date in test [1] (150 mg/kg dose) stood at 10.2. In addition, the mice survived in test [1] (150 mg/kg dose) stood at 60%. The “suppression of HIV replication in monocytes” value in test [14] (chronic HIV model, U1 cells) came to 79%. For the same compound, in test [16], the “activity in in vivo Rhinovirus screening test” value is recorded as “Nor was it active”. Further, the “activity in in vitro herpes screening model” value in [17] is given as “Nor was it active”. The “activity in in vitro model for influenza” value in test [18] is “did not show activity”. The “activity in in vivo mouse model for breast cancer (MXI)” value in [19] is on record as “no activity”.
Take `Cc1cn([C@H]2C[C@H](N=[N+]=[N-])[C@@H](CO)O2)c(=O)[nH]c1=O` [AZT, reference compound]: in test [4] (1 μg/ml), the “inhibition of viral replication” value turned out to be 98%. Further, in test [14], the “action in the HIV chronic model” value is “no action”.
Take `COc1cccc2c1C(=O)c1c(O)c3c(c(O)c1C2=O)C[C@@](O)(C(=O)CO)C[C@@H]3O[C@H]1C[C@H](N)[C@H](O)[C@H](C)O1` [Adriamycin, doxorubicin (adriamycin), reference compound]: the EC50 in test [3] (MTT, 5 day incubation, first MX1 column, read-out: EC-50 Result MX1) was 0.02 µg/mL (≈ 0.0368 µM); in test [3] (MTT, 5 day incubation, second MX1 column, read-out: EC-50 Result MX1) it was 0.001 µg/mL (≈ 0.00184 µM); in test [5] (MTT, 5 day incubation, first A549 column, read-out: EC-50 Result A549), 0.03 µg/mL (≈ 0.0552 µM); in [5] (MTT, 5 day incubation, second A549 column, read-out: EC-50 Result A549), 0.009 µg/mL (≈ 0.0166 µM); in [7] (normal healthy cells, first value, read-out: EC-50 Broncheal Cells) it was 0.015 µg/mL (≈ 0.0276 µM); in test [7] (normal healthy cells, second value, read-out: EC-50 Broncheal Cells) it was 0.002 µg/mL (≈ 0.00368 µM). In addition, the EC50 in test [9] (MTT, 5 day incubation, first HT29 column, read-out: EC-50 Result HT29) stood at 0.003 µg/mL (≈ 0.00552 µM); in test [9] (MTT, 5 day incubation, second HT29 column, read-out: EC-50 Result HT29) it was 0.006 µg/mL (≈ 0.011 µM); in test [13] (normal healthy cells, first value, read-out: EC-50 Fibroblasts), 0.065 µg/mL (≈ 0.12 µM); in test [13] (normal healthy cells, second value, read-out: EC-50 Fibroblasts), 0.1 µg/mL (≈ 0.184 µM); in test [15] (normal healthy cells, first value, read-out: EC-50 Kerotinoyle Cells) it was 0.0035 µg/mL (≈ 0.00644 µM); in test [15] (normal healthy cells, second value, read-out: EC-50 Kerotinoyle Cells), 0.0093 µg/mL (≈ 0.0171 µM).

Broadly, the inhibition is the relative decrease from the control value, in per cent.
